Source: patent publication US20260355165A1, “2,3,4,9-TETRAHYDRO-1H-PYRIDO[3,4-B]INDOLE DERIVATIVES AS ESTROGEN RECEPTOR MODULATORS FOR THE TREATMENT OF CANCER” (Olema Pharmaceuticals, Inc., priority 2022, published 2026)

Target: T1, estrogen receptor (Homo sapiens, UniProt P03372)
T1 construct: endogenous in cells; host or cells: ECC-1 cells
T1 sequence (P03372 1-595): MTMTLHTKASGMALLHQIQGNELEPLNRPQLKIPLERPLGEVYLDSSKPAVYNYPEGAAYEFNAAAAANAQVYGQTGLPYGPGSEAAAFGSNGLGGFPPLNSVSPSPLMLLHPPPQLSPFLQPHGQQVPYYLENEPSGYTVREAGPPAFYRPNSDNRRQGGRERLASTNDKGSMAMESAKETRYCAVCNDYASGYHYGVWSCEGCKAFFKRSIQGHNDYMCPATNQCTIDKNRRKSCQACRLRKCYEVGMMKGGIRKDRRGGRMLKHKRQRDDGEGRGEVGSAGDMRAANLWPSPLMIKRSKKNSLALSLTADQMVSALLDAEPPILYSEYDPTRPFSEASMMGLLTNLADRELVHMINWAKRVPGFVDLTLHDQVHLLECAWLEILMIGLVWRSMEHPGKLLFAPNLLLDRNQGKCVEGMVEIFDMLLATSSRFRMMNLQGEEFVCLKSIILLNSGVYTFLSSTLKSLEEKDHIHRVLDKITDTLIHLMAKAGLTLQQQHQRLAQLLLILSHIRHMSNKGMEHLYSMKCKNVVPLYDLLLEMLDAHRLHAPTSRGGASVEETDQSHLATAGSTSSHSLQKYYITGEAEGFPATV
Test: AP assay (alkaline phosphatase activity in ECC-1 cells), agonist mode (absence of E2) and antagonist mode (presence of 500 pM E2)
Assay type: cell-based
Settings: for IC50: AP assay; for IC50 / reduction in the E2-normalized signal in the AP assay (antagonist mode): antagonist mode, 500 pM E2, 3 days; for increase in E2-normalized signal in the AP assay (agonist mode): absence of E2, 3 days
In short: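 ECC-1 cells in hormone-depleted medium treated with compounds for 3 days, without E2 (agonist mode) or with 500 pM E2 (antagonist mode). AP activity read at 405 nm after p-nitrophenyl phosphate substrate, 40 min at 42 °C. Signal normalized to 500 pM E2 alone.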

Row | Structure (SMILES) | Activity (estrogen receptor modulation, e.g., agonism and antagonism) (3 days, AP activity normalized to 500 pM E2 alone, agonist and antagonist mode combined) | IC50 | increase in E2-normalized signal in the AP assay (agonist mode) | reduction in the E2-normalized signal in the AP assay (antagonist mode)
1 | C[C@@H]1Cc2c([nH]c3ccccc23)[C@@H](c2ccc3c(c2)nc(CN2CC(CF)C2)[s+]3[O-])N1CC(C)(C)F (stereo partly drawn) [Compound I-104, 2-[[3-(fluoromethyl)azetidin-1-yl]methyl]-5-[(1R,3R)-2-(2-fluoro-2-methyl-propyl)-3-methyl-1,3,4,9-tetrahydropyrido[3,4-b]indol-1-yl]-1,3-benzothiazole 1-oxide] | + (estrogen receptor agonism having (i) at least 80% increase in the E2-normalized signal in the AP assay (agonist mode) and (ii) no more than 80% reduction in the E2-normalized signal in the AP assay (antagonist mode)) | – | – | –
2 | C[C@@H]1Cc2c([nH]c3ccccc23)[C@@H](c2ccc3[nH]c(CN4CC(CF)C4)cc3c2)N1CC(F)(F)C(F)F [Compound I-109, (1R,3R)-1-[2-[[3-(fluoromethyl)azetidin-1-yl]methyl]-1H-indol-5-yl]-3-methyl-2-(2,2,3,3-tetrafluoropropyl)-1,3,4,9-tetrahydropyrido[3,4-b]indole] | – | < 0.398 µM | no more than 10% | ≥ 10%
3 | C[C@@H]1Cc2c([nH]c3ccccc23)[C@@H](c2ccc3[nH]c(CN4CC(CF)C4)cc3c2)N1CC(F)(F)C(F)(F)F [Compound I-110, (1R,3R)-1-[2-[[3-(fluoromethyl)azetidin-1-yl]methyl]-1H-indol-5-yl]-3-methyl-2-(2,2,3,3,3-pentafluoropropyl)-1,3,4,9-tetrahydropyrido[3,4-b]indole] | – | < 0.398 µM | no more than 10% | ≥ 10%
